Experimental findings from US7713994B2 (Wyeth LLC, priority 2005, dated 2010) are described below.

One assay addresses T1, cyclin D1/cdk 4 enzyme (Homo sapiens, UniProt P11802).
T1 construct: made in house; host or cells: Sf9 insect cells, recombinant baculovirus
Nature of the assay: CDK4 ELISA kinase assay (phospho-Rb ser 795 detection). The assay is classed as biochemical. As to conditions: In Vitro Enzyme Assay, cyclin D1/cdk 4, read-out: CDK4 IC50. The method in brief:
(§1)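 Wells were coated overnight with GST-Rb C-terminal fragment, then blocked. Compound (10 ug/ml final) and cyclin/CDK enzyme from baculovirus-infected Sf9 cells with 200 μM ATP reacted 1 h at 30° C. Ser795 phosphorylation was detected by ELISA at 450 nm.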
A general note: ELISA stands for enzyme-linked immunosorbent assay.

In the next assay the target is T2, cyclin E/CDK2 enzyme (Homo sapiens, UniProt P24941).
T2 construct: made in house; host or cells: Sf9 insect cells, recombinant baculovirus
Description: CDK2 ELISA kinase assay (phospho-Rb ser 795 detection). Format: biochemical. As to conditions: In Vitro Enzyme Assay, cyclin E/CDK2, read-out: CDK2 IC50. The method in brief: as §1

The next assay relates to LoVo. Description: Cytotoxicity assay (SRB), LoVo. The assay is classed as cell-based. As to conditions: Homo sapiens, LoVo, 72 h, LoVo cells, 3 days, SRB; read-out: In Vitro Cellular Activity IC50 LOVO. The method in brief:
(§2)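 Cells were seeded overnight in RPMI 1640 with 5% FBS at 37 °C, 7% CO2 (12000/well BT474, 4000 HCT-116, 6000 LoVo, 6000 MCF-7), then exposed to compound dilutions for 3 days (6 days for BT474). Survival versus untreated controls was measured by TCA fixation and SRB staining at 540 nm.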

The next assay has as its system BT474. Description: Cytotoxicity assay (SRB), BT474. The assay is classed as cell-based. The note with it: Homo sapiens, BT-474, 144 h, BT474 cells, 6 days, SRB; read-out: In Vitro Cellular Activity IC50 BT474. The method in brief:
as §2

The target of the next assay is T3, cyclin B/CDK1 enzyme (Homo sapiens, UniProt P06493).
T3 construct: purchased New England BioLabs; host or cells: Sf9 insect cells, recombinant baculovirus
Nature of the assay: CDK1 ELISA kinase assay (phospho-Rb ser 795 detection). The assay is classed as biochemical. The note with it: In Vitro Enzyme Assay, cyclin B/CDK1, read-out: CDK1 IC50. A digest of the protocol: as §1

A further assay relates to HCT-116. Description: Cytotoxicity assay (SRB), HCT-116. Format: cell-based. As to conditions: Homo sapiens, HCT-116, 72 h, HCT116 cells, 3 days, SRB; read-out: In Vitro Cellular Activity IC50 HCT116. A digest of the protocol: as §2
For the next assay, the system named is MCF-7. Description: Cytotoxicity assay (SRB), MCF-7. The assay is classed as cell-based. As to conditions: Homo sapiens, MCF7, 72 h, MCF-7 cells, 3 days, SRB; read-out: In Vitro Cellular Activity IC50 MCF-7. The method in brief:
as §2

T3 sequence (P06493 whole entry): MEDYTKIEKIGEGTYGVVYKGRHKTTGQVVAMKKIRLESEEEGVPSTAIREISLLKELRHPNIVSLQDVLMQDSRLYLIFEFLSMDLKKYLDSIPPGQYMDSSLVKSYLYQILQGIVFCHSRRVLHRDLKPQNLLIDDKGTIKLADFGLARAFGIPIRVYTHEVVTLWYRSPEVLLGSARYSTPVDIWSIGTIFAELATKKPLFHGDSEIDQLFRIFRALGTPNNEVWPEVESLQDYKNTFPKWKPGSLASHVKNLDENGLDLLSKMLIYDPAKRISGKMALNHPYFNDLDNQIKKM
T3 sequence (P14635 whole entry partner): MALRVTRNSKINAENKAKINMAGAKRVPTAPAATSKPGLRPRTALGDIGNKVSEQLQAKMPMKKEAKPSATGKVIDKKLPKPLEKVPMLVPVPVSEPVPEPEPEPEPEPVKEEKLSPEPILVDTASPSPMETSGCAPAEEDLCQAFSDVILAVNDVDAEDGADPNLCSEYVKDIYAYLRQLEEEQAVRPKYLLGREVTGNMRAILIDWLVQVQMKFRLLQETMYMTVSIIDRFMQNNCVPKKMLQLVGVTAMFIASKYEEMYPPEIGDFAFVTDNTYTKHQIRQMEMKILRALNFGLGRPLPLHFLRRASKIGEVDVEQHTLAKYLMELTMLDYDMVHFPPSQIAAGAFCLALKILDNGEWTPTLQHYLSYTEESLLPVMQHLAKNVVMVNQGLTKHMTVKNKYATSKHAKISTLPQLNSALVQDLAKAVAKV
T1 sequence (P11802 whole entry, species assumed): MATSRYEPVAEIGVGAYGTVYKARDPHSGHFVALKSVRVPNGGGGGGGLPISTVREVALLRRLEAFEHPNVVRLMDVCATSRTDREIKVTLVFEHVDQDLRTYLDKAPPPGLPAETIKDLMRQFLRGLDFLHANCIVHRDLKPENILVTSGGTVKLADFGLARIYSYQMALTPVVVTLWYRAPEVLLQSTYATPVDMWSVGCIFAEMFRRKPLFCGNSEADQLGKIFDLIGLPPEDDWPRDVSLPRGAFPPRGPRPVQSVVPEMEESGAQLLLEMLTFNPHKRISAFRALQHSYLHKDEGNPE
T1 sequence (P24385 whole entry partner, species assumed): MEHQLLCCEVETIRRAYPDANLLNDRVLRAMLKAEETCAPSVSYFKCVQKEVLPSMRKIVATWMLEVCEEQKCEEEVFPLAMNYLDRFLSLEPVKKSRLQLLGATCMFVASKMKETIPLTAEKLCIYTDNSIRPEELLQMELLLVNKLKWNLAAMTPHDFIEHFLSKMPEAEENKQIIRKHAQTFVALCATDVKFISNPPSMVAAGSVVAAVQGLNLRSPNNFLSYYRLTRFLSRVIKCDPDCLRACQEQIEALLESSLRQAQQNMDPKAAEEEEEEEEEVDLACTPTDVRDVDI

For the compound `COc1cccc(CC=Cc2ccc3c(c2)C(=CNCc2ccc(O)c(O)c2)C(=O)NC3=O)c1O` [Example 804, 4-[(3,4-Dihydroxy-benzylamino)-methylene]-6-[3-(2-hydroxy-3-methoxy-phenyl)-propenyl]-4H-isoquinoline-1,3-dione], the IC50 came out at 1 µM at cyclin D1/cdk 4 enzyme; 18 µM at cyclin E/CDK2 enzyme; 12.4 µM in the assay with LoVo; 9.7 µM in the assay with BT474; 37.1 µM on cyclin B/CDK1 enzyme; 6.1 µM in the assay with HCT-116. In addition, in the assay with MCF-7, the IC50 was 9.8 µM.

Regarding `CN1CCN(c2ccc(NC=C3C(=O)NC(=O)c4ccc(-c5ccc(CO)cc5)cc43)cc2)CC1` [Example 808, 6-(4-Hydroxymethyl-phenyl)-4-{[4-(4-methyl-piperazin-1-yl)-phenylamino]-methylene}-4H-isoquinoline-1,3-dione], the IC50 on cyclin D1/cdk 4 enzyme is 0.38 µM; at cyclin E/CDK2 enzyme, above 50 µM; in the assay with LoVo it was 5.4 µM; in the assay on BT474 it was 8 µM; at cyclin B/CDK1 enzyme, above 50 µM; in the assay on HCT-116, 1.6 µM. Also, the IC50 with MCF-7 came to 8.6 µM.

With `O=C1NC(=O)c2ccc(-c3ccc4c(c3)OCO4)cc2C1=CNCc1ccc(O)c(O)c1` [Example 812, 6-Benzo[1,3]dioxol-5-yl-4-[(3,4-dihydroxy-benzylamino)-methylene]-4H-isoquinoline-1,3-dione], the IC50 on cyclin D1/cdk 4 enzyme is 0.13 µM; on cyclin E/CDK2 enzyme it was 28.3 µM; in the assay on LoVo, above 50 µM; with BT474, above 50 µM; on cyclin B/CDK1 enzyme it was above 50 µM; in the assay with HCT-116 it was 44.7 µM. In addition, in the assay on MCF-7, the 50% inhibitory concentration (IC50) is 49.8 µM.

In the case of `COc1ccc(-c2ccc3c(c2)C(=CNCc2ccc(O)c(O)c2)C(=O)NC3=O)cc1OC` [Example 813, 4-[(3,4-Dihydroxy-benzylamino)-methylene]-6-(3,4-dimethoxy-phenyl)-4H-isoquinoline-1,3-dione], the IC50 at cyclin D1/cdk 4 enzyme is 0.31 µM; at cyclin E/CDK2 enzyme, 33.1 µM; with LoVo it was 12.7 µM; with BT474, 35.8 µM; on cyclin B/CDK1 enzyme it was above 50 µM; in the assay with HCT-116, 19.8 µM. For the same compound, in the assay with MCF-7, the IC50 is 29.7 µM.

For the compound `CN(C)c1ccc(-c2ccc3c(c2)C(=CNCc2ccc(O)c(O)c2)C(=O)NC3=O)cc1` [Example 816, 4-[(3,4-Dihydroxy-benzylamino)-methylene]-6-(4-dimethylamino-phenyl)-4H-isoquinoline-1,3-dione], the half-inhibitory concentration (IC50) on cyclin D1/cdk 4 enzyme is 0.31 µM; on cyclin E/CDK2 enzyme it was 24.2 µM; in the assay with LoVo it was 10.2 µM; with BT474 it was 4 µM; on cyclin B/CDK1 enzyme it was above 50 µM; in the assay with HCT-116 it was 11.6 µM. Further, the half-inhibitory concentration (IC50) in the assay on MCF-7 was found to be 10.1 µM.

For `O=C1NC(=O)c2ccc(-c3ccc(CO)cc3)cc2C1=CNCc1ccc(O)c(O)c1` [Example 817, 4-[(3,4-Dihydroxy-benzylamino)-methylene]-6-(4-hydroxymethyl-phenyl)-4H-isoquinoline-1,3-dione], the half-inhibitory concentration (IC50) worked out at 0.04 µM on cyclin D1/cdk 4 enzyme; 7 µM on cyclin E/CDK2 enzyme; 34.9 µM in the assay with LoVo; 16.2 µM in the assay on BT474; 7 µM on cyclin B/CDK1 enzyme; 46.9 µM in the assay on HCT-116. For the same compound, in the assay on MCF-7, the 50% inhibitory concentration (IC50) worked out at 24.9 µM.

Regarding `O=C1NC(=O)c2ccc(-c3ccc(OC(F)(F)F)cc3)cc2C1=CNCc1ccc(O)c(O)c1` [Example 818, 4-[(3,4-Dihydroxy-benzylamino)-methylene]-6-(4-trifluoromethoxy-phenyl)-4H-isoquinoline-1,3-dione], the IC50 at cyclin D1/cdk 4 enzyme amounted to 0.79 µM; at cyclin E/CDK2 enzyme, 30.3 µM; with LoVo, 7.4 µM; with BT474 it was 22.9 µM; on cyclin B/CDK1 enzyme, 36.3 µM; in the assay on HCT-116 it was 11.7 µM. Moreover, the IC50 in the assay with MCF-7 amounted to 10.5 µM.

Turning to `O=C1NC(=O)c2ccc(-c3cccc([N+](=O)[O-])c3)cc2C1=CNCc1ccc(O)c(O)c1` [Example 820, 4-[(3,4-Dihydroxy-benzylamino)-methylene]-6-(3-nitro-phenyl)-4H-isoquinoline-1,3-dione], the IC50 is 2.1 µM at cyclin D1/cdk 4 enzyme; 27.1 µM on cyclin E/CDK2 enzyme; 47.9 µM in the assay on LoVo; above 50 µM in the assay with BT474; above 50 µM at cyclin B/CDK1 enzyme; 41.5 µM in the assay with HCT-116. The half-maximal inhibitory concentration (IC50) in the assay on MCF-7 is above 50 µM.

As to `Nc1cccc(-c2ccc3c(c2)C(=CNCc2ccc(O)c(O)c2)C(=O)NC3=O)c1` [Example 821, 6-(3-Amino-phenyl)-4-[(3,4-dihydroxy-benzylamino)-methylene]-4H-isoquinoline-1,3-dione], the half-maximal inhibitory concentration (IC50) was determined as 0.14 µM at cyclin D1/cdk 4 enzyme; 20.7 µM on cyclin E/CDK2 enzyme; 50.1 µM in the assay on LoVo; 25.1 µM with BT474; 24.2 µM on cyclin B/CDK1 enzyme; 35.9 µM with HCT-116. For the same compound, in the assay on MCF-7, the IC50 stood at 27.2 µM.

As for `CC(=O)Nc1cccc(-c2ccc3c(c2)C(=CNCc2ccc(O)c(O)c2)C(=O)NC3=O)c1` [Example 822, N-(3-{4-[(3,4-Dihydroxy-benzylamino)-methylene]-1,3-dioxo-1,2,3,4-tetrahydro-isoquinolin-6-yl}-phenyl)-acetamide], the IC50 came out at 0.15 µM at cyclin D1/cdk 4 enzyme; 18.9 µM at cyclin E/CDK2 enzyme; 47.9 µM in the assay on LoVo; 11 µM with BT474; 46.5 µM at cyclin B/CDK1 enzyme; 27.2 µM in the assay with HCT-116. The half-maximal inhibitory concentration (IC50) in the assay with MCF-7 was 16.8 µM.

Take `O=C1NC(=O)c2ccc(-c3ccc(Cl)cc3Cl)cc2C1=CNCc1ccc(O)c(O)c1` [Example 823, 6-(2,4-Dichloro-phenyl)-4-[(3,4-dihydroxy-benzylamino)-methylene]-4H-isoquinoline-1,3-dione]: the IC50 on cyclin D1/cdk 4 enzyme was found to be 0.22 µM; on cyclin E/CDK2 enzyme, 2.4 µM; in the assay on LoVo, 12.3 µM; with BT474, 21.4 µM; on cyclin B/CDK1 enzyme, 9.4 µM; in the assay on HCT-116, 11.9 µM. Moreover, the concentration for half-maximal inhibition (IC50) in the assay with MCF-7 worked out at 14.8 µM.

On to `COc1ccc(CNC=C2C(=O)NC(=O)c3ccc(C=Cc4ccncc4)cc32)cc1O` [Example 824, 4-[(3-Hydroxy-4-methoxy-benzylamino)-methylene]-6-(2-pyridin-4-yl-vinyl)-4H-isoquinoline-1,3-dione], for which the IC50 is 0.01 µM at cyclin D1/cdk 4 enzyme; 34.7 µM on cyclin E/CDK2 enzyme; above 50 µM in the assay on LoVo; above 50 µM with BT474; above 50 µM on cyclin B/CDK1 enzyme; 27.5 µM in the assay with HCT-116. Moreover, the IC50 with MCF-7 was determined as 33.2 µM.

With `COc1ccc(CNC=C2C(=O)NC(=O)c3ccc(C=Cc4ccccc4)cc32)cc1O` [Example 825, 4-[(3-Hydroxy-4-methoxy-benzylamino)-methylene]-6-styryl-4H-isoquinoline-1,3-dione], the 50% inhibitory concentration (IC50) on cyclin D1/cdk 4 enzyme was 0.02 µM; on cyclin E/CDK2 enzyme, 36.3 µM; with LoVo, 22.1 µM; in the assay on BT474 it was 24.7 µM; at cyclin B/CDK1 enzyme, above 50 µM; in the assay with HCT-116 it was 11.9 µM. Besides, the IC50 with MCF-7 was determined as 12.3 µM.

As for `COc1ccc(CNC=C2C(=O)NC(=O)c3ccc(C=CCc4cccc(OC)c4O)cc32)cc1O` [Example 827, 4-[(3-Hydroxy-4-methoxy-benzylamino)-methylene]-6-[3-(2-hydroxy-3-methoxy-phenyl)-propenyl]-4H-isoquinoline-1,3-dione], the IC50 at cyclin D1/cdk 4 enzyme is 0.12 µM; at cyclin E/CDK2 enzyme it was 45.5 µM; in the assay on LoVo, 18.1 µM; in the assay on BT474, 26.5 µM; on cyclin B/CDK1 enzyme, above 50 µM; with HCT-116 it was 10.8 µM. In the assay on MCF-7, the IC50 was found to be 17.5 µM.

For the compound `COc1ccc(CNC=C2C(=O)NC(=O)c3ccc(-c4ccccc4)cc32)cc1O` [Example 832, 4-[(3-Hydroxy-4-methoxy-benzylamino)-methylene]-6-phenyl-4H-isoquinoline-1,3-dione], the IC50 came out at 0.01 µM at cyclin D1/cdk 4 enzyme; 25.9 µM on cyclin E/CDK2 enzyme; 8.5 µM in the assay on LoVo; 14.9 µM in the assay on BT474; 34.7 µM at cyclin B/CDK1 enzyme; 9.9 µM with HCT-116. Besides, the concentration for half-maximal inhibition (IC50) in the assay on MCF-7 was 11.8 µM.

Take `COc1ccc(-c2ccc3c(c2)C(=CNCc2ccc(OC)c(O)c2)C(=O)NC3=O)cc1` [Example 833, 4-[(3-Hydroxy-4-methoxy-benzylamino)-methylene]-6-(4-methoxy-phenyl)-4H-isoquinoline-1,3-dione]: the concentration for half-maximal inhibition (IC50) at cyclin D1/cdk 4 enzyme was 0.01 µM; at cyclin E/CDK2 enzyme, 15.1 µM; in the assay on LoVo it was 19.2 µM; in the assay with BT474 it was 25.1 µM; on cyclin B/CDK1 enzyme it was above 50 µM; in the assay on HCT-116, 16.9 µM. The IC50 with MCF-7 came to 26.5 µM.

As usually defined, the IC50 is the concentration that gives 50% inhibition.
